How the values were obtained:
U2OS [1] = experiment: cells; parameters: tumour cell growth suppression, dose response, 24 h; details: Homo sapiens, 24 h
Protocol: (§1) On the basis of a previous publication, a potential CDKL3 inhibitor candidate caught our attention. […] Thus, we intended to generate an efficient CDKL3 inhibitor based on this chemical backbone for cell cycle arrest. As the first step, the original compound (ASC67) was synthesized, and the performance was evaluated ([50]). The addition of ASC67 could gradient-dependently diminish the phosphorylation of Rb by CDKL3 while not influencing CDK4 or CDK2 in vitro (Figure 8B). The effectiveness of this chemical was then evaluated using a variety of cancer cell lines, including estrogen-responsive (ER^+) breast cancer, for which palbociclib is administrated clinically ([51]). […] As a direct comparison, the clinically approved CDK4/6 inhibitor had IC50 values ranging from 1 to 5 μM in different cell lines (Figure 8, C–F, and Supplemental Figure 6, A–F) ([47], [52]–[55]). This information made it evident that ASC67 holds considerable promise in cancer treatment and can be used as a backbone compound for further optimization. Chemical treatments Cdk1/2 Inhibitor III was dissolved in DMSO with a concentration of 25mM as stock solution. Cells were treated at a final concentration of 1.2μM. 5μM was used for in vitro kinase assay. Palbociclib was dissolved in DMSO with a concentration of 100mM as stock solution. Cells were treated with Palbociclib at a final concentration of 0.8μM. 5μM was used for in vitro kinase assay. Thymidine was dissolved in ddH2O with a concentration of 200mM. Cells were treated with Thymidine at a final concentration of 2mM. ASC67 was dissolved in DMSO with a concentration of 300mM as stock solution. For IC50 assay, cells were treated at a concentration range from 0 to 300μM. For in vitro kinase assay, the concentration ranging from 0 to 0.5μM was used. The inhibitor C3I-22 (HZ1) was dissolved in DMSO with a concentration of 300mM as stock solution. For IC50 assay, cells were treated with a concentration range from 0 to 300μM. For in vitro kinase assay, the concentration ranging from 0 to 0.1μM was used. Organoids derived from colon cancer patients were treated with a concentration range from 0 to 5μM. Balb/cA-nude and C57BL/6J-Apcmin/+ mice were treated with a concentration of 1mg/kg (suspended in PBS) through oral gavage. Other C3I inhibitors were dissolved in DMSO with a concentration of 200mM as stock solution. In vitro protein purification GST-tagged proteins were transformed into E. coli BL21 competent cells, and then protein expression was induced by adding IPTG (Beyotime Biotechnology) at 18°C for 6 to 10 hours. The bacterial culture was centrifuged (600xg, 10 min, 4°C), and the pellets were resuspended in 20mL lysis buffer (50mM Tris-HCl, 300mM NaCl, and 10% (v/v) glycerol, 1mM [compound left out], pH 7.9) and sonicated with 50% power on a SCIENTZ JY92-IIN sonicator for 20 minutes (5 seconds per time, with an interval of 5 seconds).

HeLa [2] = experiment: cells; parameters: tumour cell growth suppression, dose response, 24 h; details: Homo sapiens, 24 h
Protocol: as §1

MDA-MB-231 [3] = experiment: cells; parameters: tumour cell growth suppression, dose response, 24 h; details: Homo sapiens, MDA-MB-231, 24 h
Protocol: as §1

U2OS [4] = experiment: cells; parameters: tumour cell growth suppression, dose response, 72 h; details: Homo sapiens, 72 h
Protocol: as §1

HeLa [5] = experiment: cells; parameters: tumour cell growth suppression, dose response, 72 h; details: Homo sapiens, 72 h
Protocol: as §1

MDA-MB-231 [6] = experiment: cells; parameters: tumour cell growth suppression, dose response, 72 h; details: Homo sapiens, MDA-MB-231, 72 h
Protocol: as §1

DLD-1 [7] = experiment: cells; parameters: tumour cell growth suppression, dose response, 24 h; details: Homo sapiens, 24 h, parental cells
Protocol: as §1

DLD-1 [8] = experiment: cells; parameters: tumour cell growth suppression, dose response, 72 h; details: Homo sapiens, 72 h, parental cells
Protocol: as §1

T47D [9] = experiment: cells; parameters: tumour cell growth suppression, dose response, 24 h; details: Homo sapiens, 24 h, parental cells
Protocol: as §1

MCF7 [10] = experiment: cells; parameters: tumour cell growth suppression, dose response, 24 h; details: Homo sapiens, 24 h, parental cells
Protocol: as §1

T47D [11] = experiment: cells; parameters: tumour cell growth suppression, dose response, 72 h; details: Homo sapiens, 72 h, parental cells
Protocol: as §1

MCF7 [12] = experiment: cells; parameters: tumour cell growth suppression, dose response, 72 h; details: Homo sapiens, 72 h, parental cells
Protocol: as §1

UBE3A = UBE3A (UniProt Q05086); experiment: co-immunoprecipitation; details: reference: CDK4 wild type; sites T172
Stub1 = Stub1 (UniProt Q9UNE7); experiment: co-immunoprecipitation; details: reference: CDK4 wild type; sites T172
Trim28 = Trim28 (UniProt Q13263); experiment: co-immunoprecipitation; details: reference: CDK4 wild type; sites T172

Molecule `N#CCc1ccc(Nc2nccc(Nc3cc(C4CCCC4)n[nH]3)n2)cc1` [ASC67] has an IC50 (U2OS [1]) of 1810 nM, an IC50 (HeLa [2]) of 954 nM and an IC50 (MDA-MB-231 [3]) of 1830 nM. For the same molecule, the IC50 (U2OS [4]) was 998 nM, the IC50 (HeLa [5]) was 1550 nM and the IC50 (MDA-MB-231 [6]) was 381 nM.

`CC(=O)c1ccc(Nc2nccc(Nc3cc(C4CCCC4)n[nH]3)n2)cc1` [C3I-22, HZ1] gave an IC50 (DLD-1 [7]) of 600 nM, an IC50 (U2OS [1]; parental cells) of 1320 nM and an IC50 (DLD-1 [8]) of 147 nM. It also gave an IC50 (U2OS [4]) of 348 nM and an IC50 (U2OS [4]; parental cells) of 415 nM.

For `O=C(O)c1ccc(Nc2nccc(Nc3cc(C4CCCC4)n[nH]3)n2)cc1` [C3I-22-1, 4-((4-((3-cyclopentyl-1H-pyrazol-5-yl)amino)pyrimidin-2-yl)amino)benzoic acid], the IC50 (U2OS [4]) was 38800 nM.

For `CC(=O)c1c(C)c2cnc(Nc3ccc(N4CCNCC4)cn3)nc2n(C2CCCC2)c1=O` [palbociclib], the IC50 (T47D [9]) was 2150 nM, the IC50 (U2OS [1]) was 3520 nM and the IC50 (MCF7 [10]) was 2880 nM. It also gave an IC50 (HeLa [2]) of 4240 nM, an IC50 (MDA-MB-231 [3]) of 5200 nM and an IC50 (T47D [11]) of 1860 nM. For the same molecule, the IC50 (MCF7 [12]) was 2570 nM.

CDK4 (from UniProt P11802) CDK4 T172A was tested, and the “binding against the reference” value (UBE3A) was “stronger”, the “binding against the reference” value (Stub1) was “stronger” and the “binding against the reference” value (Trim28) was “stronger”.

— PMC11324297, “CDKL3 is a targetable regulator of cell cycle progression in cancers” (The Journal of Clinical Investigation, 2024)
